Measured values published in paper PMC5867665, “Targeting Multiple Effector Pathways in Pancreatic Ductal Adenocarcinoma with a G-Quadruplex-Binding Small Molecule” (Journal of Medicinal Chemistry, 2018).

Legend:
[1] = tested on: MIA PaCa-2 and PANC-1 cells; experiment: RT-qPCR validation of down-regulated genes; type: cell-based, human
Description: The RNA-seq results are consistent with the hypothesis that G4 ligands can alter gene expression when PQs are targets in individual genes.[23] Previously, global G4-motif specific changes in the transcriptome with bisquinolinium compounds in HeLa cells have been reported using microarray analysis.[48] However, our work represents the first comprehensive analysis using state-of-the-art RNA-seq methodology. […] The observed transcriptional effects of CM03 also align with the hypothesis that down-regulation of gene expression is mediated through ligand-stabilized G4s, causing for example steric hindrance and inhibition of RNA pol II in the transcription bubble (reviewed in ref ([23])). The observations that transcriptional effects are closely aligned in two PDAC cell lines, independently sequenced, gives added confidence to these conclusions.
MIA PaCa-2 (6 h = 2.5 × 10^6 and 24 h = 1.0 × 10^6 cells/well) and PANC-1 (6 h = 1.0 × 10^6 and 24 h = 0.5 × 10^6 cells/well) cell lines were seeded in 100 mm plates and incubated overnight. […] The concentration of harvested RNA was measured with a NanoDrop 2000/2000c spectrophotometer (ThermoFisher). […] The Ct values were normalized to the genomic mean of three housekeeping genes ACTB, GAPDH, and TUBB, and the fold change was determined using 2^–ΔΔCt.

[2] = tested on: MIA PaCa-2 pancreatic tumor xenograft; experiment: Subcutaneous MIA PaCa-2 pancreatic tumor xenograft therapy study; type: in vivo; conditions: for tumor regrowth after dosing stopped: 15 mg/kg, from day 28 onward
Method: To determine if the in vitro activity of CM03 was paralleled in vivo, we explored the activity of CM03 in a mouse xenograft model of PDAC. We have previously reported that the maximum tolerated dosage (MTD) for intravenous (IV) administration of MM41 is 25 mg/kg.[33] CM03 was well tolerated, up to a dosage of 45–50 mg/kg, as judged by a dose-escalation MTD study. A therapeutic schedule of two CM03 intravenous (IV) doses was explored using a subcutaneous MIA PaCa-2 pancreatic tumor xenograft model derived from the human cell line used in the cell growth inhibition studies. A group size of eight CD-1 nude mice was used, and dosing was conducted at 10 and 15 mg/kg, each twice weekly, over a period of 4 weeks (28 days: 8 doses). Two further groups were given either MM41 or gemcitabine at 15 mg/kg and received the same dose regimen. […] IVIS imaging of treated mice was performed by taking account of the intrinsic fluorescence of CM03. […] Thus, in contrast to MM41 and gemcitabine, the higher-dose CM03 treatment results in a statistically significant (p < 0.001) antitumor effect, which persisted long after dosing had ceased, up to the termination of the xenograft experiment (62 days).
For therapy studies, female CD-1 nude mice (2–3 months old, weighing 20–25 g) were injected subcutaneously with 5 × 10^6 MIA PaCa-2 cells in the right flank (unsupplemented RPMI + Matrigel). When the tumors were established (approximately 13 days, mean size 0.05 cm^3), the mice were divided into five treatment groups with eight mice/group. The MM41 and CM03 samples were dissolved directly in saline to the required concentrations and administered IV. Tumor size was measured weekly by calliper using the π-based ellipsoid volume formula (length × width × height × π/6) every 3–4 days, and the mice were also weighed and examined at the same time to determine any signs of toxicity from the drug.
• Group 1:15 mg/kg of gemcitabine (Sigma), twice weekly dose. • Group 2:15 mg/kg of MM41, twice weekly dose. • Group 3:10 mg/kg of CM03, twice weekly dose. • Group 4:15 mg/kg of CM03, twice weekly dose. • Group 5: saline only, twice weekly dose.
The xenograft data was analyzed using Student’s t test (GraphPad Inc.). Responses were considered to be significant for those with probabilities (p) less than 5% (p < 0.05). Mice were culled if there was any sign of tumor ulceration, if tumor volume exceeded 1.5 cm^3, or if a weight loss over 20% of initial body weight was observed. Samples of liver, kidney, and spleen from each animal in the CM03 (15 mg/kg) and untreated control groups were excised at the end of the therapy experiment, then fixed in 10% neutral buffered formalin for at least 48 h prior to processing and paraffin embedding. Tissue slices were stained with hematoxylin and eosin and assessed visually for any obvious differences compared with controls, indicative of toxicity and tissue damage. For the imaging study mice were anesthetized using isoflurane and imaged using the IVIS preclinical imaging system from PerkinElmer. Images were captured after 4 h following intravenous administration of CM03 using Cy5.5 excitation for 5 s.

[3] = 15 mg/kg IV twice weekly for 28 days

Row | Structure (SMILES) | RT-qPCR expression of a small set of PDAC-pathway genes ([1]; 400 nM CM03, 6 and 24 h) | MTV ± SEM (Day 62) ([2]; 10 mg/kg IV twice weekly for 28 days) | IVIS imaging, accumulation in tumor xenograft ([2]; 10 mg/kg, 4 h after IV administration) | MTV ± SEM (Day 29) [2, 3] | MTV ± SEM (Day 62) [2, 3] | animals with tumor volumes that shrank to <0.05 cm^3 by day 62 ([2]; 15 mg/kg cohort) | body weight and adverse effects ([2]; 15 mg/kg cohort, any time during the study) | tumor regrowth after dosing stopped [2] | histopathological analysis of vital organs ([2]; animals sacrificed at the end of the experiments) | RT-qPCR expression of a small set of PDAC-pathway genes ([1]; 400 nM gemcitabine, 6 and 24 h)
1 | O=C1c2ccc3c4c(c(NCCN5CCCC5)cc(c24)C(=O)N1CCCN1CCOCC1)C(=O)N(CCCN1CCOCC1)C3=O [CM03, 2,7-bis(3-morpholinopropyl)-4-((2-(pyrrolidin-1-yl)ethyl)amino)benzo[lmn][3,8]phenanthroline-1,3,6,8(2H,7H)-tetraone] | transcriptionally down-regulated in both cell lines | 0.29 ± 0.10 cm^3 | significant accumulation of CM03 in the tumor xenograft | 0.04 ± 0.02 cm^3 | 0.09 ± 0.05 cm^3 | Five out of the eight | No body weight reduction | no tumor regrowth was observed | no sign of organ damage | –
2 | Nc1ccn([C@@H]2O[C@H](CO)[C@@H](O)C2(F)F)c(=O)n1 [gemcitabine, reference compound] | – | – | – | 0.05 ± 0.02 cm^3 | 0.23 ± 0.10 cm^3 | – | – | tumor regrowth being apparent as soon as dosing was stopped | – | not significantly affected
